Reference: paper PMC12281424, “A Rac-specific competitive inhibitor of guanine nucleotide binding reduces metastasis in triple-negative breast cancer” (Cell Reports Medicine, 2025)

What was measured:
[1] = target: ATR/ATRIP(h) (Homo sapiens, UniProt Q13535); assay: Kinase Profiler; type: biochemical
Method: (§1) The kinase profiler was performed by the company Eurofins (Discovery, Panlab and Cerep).

[2] = system: CT26 cells; assay: Colorectal circulating tumor cells model (pulmonary metastasis); type: in vivo, mouse; settings: 25 mg/kg i.p. daily day 0 to 14
Method: 7-8 weeks-old BALB/c female mice received an intravenous injection through the caudal vein of the cell suspension (CT26 cells, ATCC® CCL-2638™). The volume needed for implantation was loaded in insulin syringes (2x10^5 cells) in 100 μL of phosphate-buffered saline). The anesthetized mice were placed on a warming blanket and were monitored (breathing) until they wake up.

[3] = target: Potassium Channel [KATP] (Cricetus cricetus, UniProt Q09427); assay: Safety screen; type: binding, hamster
Method: (§2) Blood cell counts, kinase profiler, safety screen, bacterial cytotoxicity, Ames, micronucleus assays were performed by the company Eurofins (France). The kinase profiler was performed by the company Eurofins (Discovery, Panlab and Cerep).

[4] = target: Flt3(h) (Homo sapiens, UniProt P36888); assay: Kinase Profiler; type: biochemical
Method: as §1

[5] = target: CLK3(h) (Homo sapiens, UniProt P49761); assay: Kinase Profiler; type: biochemical
Method: as §1

[6] = target: CK2(h) (Homo sapiens, UniProt P68400); assay: Kinase Profiler; type: biochemical
Sequence of CK2(h) (P68400 whole entry): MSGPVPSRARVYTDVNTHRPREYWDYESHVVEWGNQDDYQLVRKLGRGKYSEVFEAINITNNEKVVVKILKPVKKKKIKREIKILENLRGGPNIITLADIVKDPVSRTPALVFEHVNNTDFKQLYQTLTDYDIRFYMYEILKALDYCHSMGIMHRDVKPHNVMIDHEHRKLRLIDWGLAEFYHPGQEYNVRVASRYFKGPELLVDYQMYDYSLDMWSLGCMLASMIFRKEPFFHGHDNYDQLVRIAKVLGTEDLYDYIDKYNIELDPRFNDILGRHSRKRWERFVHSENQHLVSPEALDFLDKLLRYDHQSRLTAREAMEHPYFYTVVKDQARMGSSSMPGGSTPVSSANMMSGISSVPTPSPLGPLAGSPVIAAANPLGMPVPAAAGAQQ
Sequence of CK2(h) (P67870 whole entry partner): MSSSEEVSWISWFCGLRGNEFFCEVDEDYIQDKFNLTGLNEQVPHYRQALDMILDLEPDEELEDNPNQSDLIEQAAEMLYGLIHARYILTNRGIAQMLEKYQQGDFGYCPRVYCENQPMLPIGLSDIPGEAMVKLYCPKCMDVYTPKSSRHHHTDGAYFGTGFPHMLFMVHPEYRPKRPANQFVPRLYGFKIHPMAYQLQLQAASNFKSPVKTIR
Method: as §1

[7] = target: Transporter, Dopamine (DAT) (Homo sapiens, UniProt Q01959); assay: Safety screen; type: binding
Method: (§3) Blood cell counts, kinase profiler, safety screen, bacterial cytotoxicity, Ames, micronucleus assays were performed by the company Eurofins (France).

[8] = target: Bmx(h) (Homo sapiens, UniProt P51813); assay: Kinase Profiler; type: biochemical
Sequence of Bmx(h) (P51813 whole entry): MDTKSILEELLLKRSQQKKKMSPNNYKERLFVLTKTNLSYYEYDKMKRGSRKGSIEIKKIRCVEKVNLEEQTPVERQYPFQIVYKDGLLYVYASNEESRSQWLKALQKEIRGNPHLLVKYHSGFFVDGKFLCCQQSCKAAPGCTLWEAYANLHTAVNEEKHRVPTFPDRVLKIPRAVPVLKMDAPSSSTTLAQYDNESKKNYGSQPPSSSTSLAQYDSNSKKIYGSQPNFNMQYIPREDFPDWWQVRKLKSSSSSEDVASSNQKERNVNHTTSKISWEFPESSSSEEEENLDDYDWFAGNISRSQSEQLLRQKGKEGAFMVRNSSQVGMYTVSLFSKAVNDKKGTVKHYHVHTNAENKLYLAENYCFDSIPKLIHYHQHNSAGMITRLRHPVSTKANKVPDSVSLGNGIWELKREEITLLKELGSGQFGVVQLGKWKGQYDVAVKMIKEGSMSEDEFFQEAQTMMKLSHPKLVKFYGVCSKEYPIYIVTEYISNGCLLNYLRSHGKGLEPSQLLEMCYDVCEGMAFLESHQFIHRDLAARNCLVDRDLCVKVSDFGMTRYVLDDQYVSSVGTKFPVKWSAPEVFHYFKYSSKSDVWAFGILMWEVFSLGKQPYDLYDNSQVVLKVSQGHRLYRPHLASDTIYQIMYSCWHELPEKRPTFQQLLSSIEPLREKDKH
Method: as §2

[9] = target: Tie2(Y897S)(h) (Homo sapiens, UniProt Q02763, Y897S); assay: Kinase Profiler; type: biochemical
Sequence of Tie2(Y897S)(h) (Q02763 23-1124 Y897S): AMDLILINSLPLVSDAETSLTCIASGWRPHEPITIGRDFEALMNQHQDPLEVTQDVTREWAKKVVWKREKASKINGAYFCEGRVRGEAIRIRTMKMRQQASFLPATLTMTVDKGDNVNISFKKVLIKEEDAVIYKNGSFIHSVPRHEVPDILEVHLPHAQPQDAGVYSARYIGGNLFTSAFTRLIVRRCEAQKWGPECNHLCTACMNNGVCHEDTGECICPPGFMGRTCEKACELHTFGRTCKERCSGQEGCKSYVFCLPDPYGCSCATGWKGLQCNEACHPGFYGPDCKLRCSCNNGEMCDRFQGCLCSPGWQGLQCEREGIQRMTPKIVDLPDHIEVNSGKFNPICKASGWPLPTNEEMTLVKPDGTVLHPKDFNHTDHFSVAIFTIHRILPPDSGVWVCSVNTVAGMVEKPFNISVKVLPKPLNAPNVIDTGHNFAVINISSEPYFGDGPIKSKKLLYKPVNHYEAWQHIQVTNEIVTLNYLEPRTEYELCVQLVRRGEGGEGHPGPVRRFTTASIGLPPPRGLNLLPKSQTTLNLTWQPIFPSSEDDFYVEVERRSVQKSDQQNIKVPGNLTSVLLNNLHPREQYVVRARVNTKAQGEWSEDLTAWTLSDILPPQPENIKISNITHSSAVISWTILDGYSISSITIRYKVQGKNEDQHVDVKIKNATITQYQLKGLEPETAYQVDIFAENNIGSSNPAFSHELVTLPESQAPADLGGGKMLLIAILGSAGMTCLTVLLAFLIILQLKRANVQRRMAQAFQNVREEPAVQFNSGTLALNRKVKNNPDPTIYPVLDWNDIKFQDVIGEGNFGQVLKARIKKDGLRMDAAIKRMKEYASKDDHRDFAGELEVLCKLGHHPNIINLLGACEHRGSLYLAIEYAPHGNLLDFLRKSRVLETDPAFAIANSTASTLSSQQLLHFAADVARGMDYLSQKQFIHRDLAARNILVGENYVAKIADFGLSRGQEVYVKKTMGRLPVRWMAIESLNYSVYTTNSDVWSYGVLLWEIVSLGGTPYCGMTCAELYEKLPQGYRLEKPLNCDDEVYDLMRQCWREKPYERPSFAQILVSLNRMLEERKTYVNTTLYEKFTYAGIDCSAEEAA
Method: as §1

[10] = target: Dopamine D1 (Homo sapiens, UniProt P21728); assay: Safety screen; type: binding
Sequence of Dopamine D1 (P21728 whole entry): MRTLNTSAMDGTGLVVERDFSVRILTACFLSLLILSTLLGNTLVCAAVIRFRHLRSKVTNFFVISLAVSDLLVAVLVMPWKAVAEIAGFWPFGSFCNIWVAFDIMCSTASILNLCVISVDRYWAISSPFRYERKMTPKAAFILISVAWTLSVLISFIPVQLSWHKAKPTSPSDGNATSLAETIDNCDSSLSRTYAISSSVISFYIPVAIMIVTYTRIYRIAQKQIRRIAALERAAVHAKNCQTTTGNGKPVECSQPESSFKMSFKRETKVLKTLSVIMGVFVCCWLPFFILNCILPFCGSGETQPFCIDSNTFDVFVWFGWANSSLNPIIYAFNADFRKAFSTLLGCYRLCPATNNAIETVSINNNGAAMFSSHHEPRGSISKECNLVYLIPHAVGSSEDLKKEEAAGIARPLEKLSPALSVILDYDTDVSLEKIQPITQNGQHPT
Method: as §3

[11] = target: CLK4(h) (Homo sapiens, UniProt Q9HAZ1); assay: Kinase Profiler; type: biochemical
Sequence of CLK4(h) (Q9HAZ1 whole entry): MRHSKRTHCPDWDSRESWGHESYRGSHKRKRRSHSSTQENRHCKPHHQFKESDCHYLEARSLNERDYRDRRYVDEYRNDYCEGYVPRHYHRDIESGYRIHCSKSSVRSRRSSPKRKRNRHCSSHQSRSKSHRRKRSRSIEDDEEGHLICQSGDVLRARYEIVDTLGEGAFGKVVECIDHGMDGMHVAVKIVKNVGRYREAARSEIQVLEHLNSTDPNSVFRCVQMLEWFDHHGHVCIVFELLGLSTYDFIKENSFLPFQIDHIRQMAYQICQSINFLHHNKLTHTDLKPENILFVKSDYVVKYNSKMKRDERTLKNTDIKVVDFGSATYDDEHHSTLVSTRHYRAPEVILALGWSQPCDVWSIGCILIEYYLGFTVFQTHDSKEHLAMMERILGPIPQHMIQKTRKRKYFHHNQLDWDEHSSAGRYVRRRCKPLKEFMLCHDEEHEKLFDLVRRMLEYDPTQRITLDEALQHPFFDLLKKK
Method: as §1

[12] = target: WNK4(h) (Homo sapiens, UniProt Q96J92); assay: Kinase Profiler; type: biochemical
Method: as §1

[13] = target: Muscarinic M3 (Homo sapiens, UniProt P20309); assay: Safety screen; type: binding
Method: as §3

[14] = system: Glutamate, NMDA, Phencyclidine; assay: Safety screen; type: binding, rat
Method: as §2

[15] = target: Plk3(h) (Homo sapiens, UniProt Q9H4B4); assay: Kinase Profiler; type: biochemical
Method: as §2

[16] = target: CHK1(h) (Homo sapiens, UniProt O14757); assay: Kinase Profiler; type: biochemical
Method: as §1

[17] = target: MSK2(h) (Homo sapiens, UniProt O75676); assay: Kinase Profiler; type: biochemical
Method: as §2

[18] = target: PAK1(h) (Homo sapiens, UniProt Q13153); assay: Kinase Profiler; type: biochemical
Sequence of PAK1(h) (Q13153 whole entry): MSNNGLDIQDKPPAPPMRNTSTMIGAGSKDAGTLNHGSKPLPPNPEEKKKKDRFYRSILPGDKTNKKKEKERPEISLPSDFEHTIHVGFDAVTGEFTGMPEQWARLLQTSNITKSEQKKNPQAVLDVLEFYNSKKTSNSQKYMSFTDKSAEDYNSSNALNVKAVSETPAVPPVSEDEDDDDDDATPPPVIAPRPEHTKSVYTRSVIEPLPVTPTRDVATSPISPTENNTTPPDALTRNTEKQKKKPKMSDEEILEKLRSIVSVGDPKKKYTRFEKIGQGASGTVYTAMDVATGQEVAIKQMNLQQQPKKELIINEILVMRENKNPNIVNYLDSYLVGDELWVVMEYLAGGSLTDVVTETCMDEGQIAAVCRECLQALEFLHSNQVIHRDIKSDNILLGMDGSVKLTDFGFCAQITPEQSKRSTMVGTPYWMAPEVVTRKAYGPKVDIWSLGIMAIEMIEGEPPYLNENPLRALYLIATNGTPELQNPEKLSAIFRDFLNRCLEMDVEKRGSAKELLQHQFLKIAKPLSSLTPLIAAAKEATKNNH
Method: as §2

[19] = target: Monoamine Oxidase MAO-A (Homo sapiens, UniProt P21397); assay: Safety screen; type: biochemical
Method: as §2

[20] = target: ZAK(h) (Homo sapiens, UniProt Q9NYL2); assay: Kinase Profiler; type: biochemical
Method: as §1

[21] = target: GRK3(h) (Homo sapiens, UniProt P35626); assay: Kinase Profiler; type: biochemical
Method: as §2

[22] = target: IRAK4(h) (Homo sapiens, UniProt Q9NWZ3); assay: Kinase Profiler; type: biochemical
Method: as §1

[23] = system: MDA-MB-468 Luc cells; assay: Focus formation (clonogenic) assay; type: cell-based
Method: Figure 5 A41 decreases growth and invasiveness of TNBC cells in vitro (A) Representative images of RAC-GTP levels (red) in MDA-MB-468 Luc cells in the absence (CTL) and presence of EHT1864, NSC23766, or A41 (1 h at 10 μM) (left). Luciferase (Luc, green) was used to detect the cells. RAC-GTP mean fluorescence intensity was quantified inside the cell area (right) (n = 31–37 cells from 3 independent experiments; ∗p < 0.05, ∗∗∗p < 0.001) (scale bars: 10 μm). […] (C) Quantification of colony number of indicated cancer cell lines in the presence of A41 (10 μM) expressed as the percentage of control in the absence of A41. Results shown are representative of N > 3 independent experiments. (D) Immunoblot analysis and corresponding quantification of AKT and P44/42 expression and phosphorylation (pAKT, p44/42) in MDA-MB-468 Luc cells in the absence (−) and presence of NSC23766 or A41 (1 h at 10^−5 M). Results shown are representative of 3 independent experiments. ∗∗p < 0.01 vs. untreated cells, ^###p < 0.001 vs. NSC23766-treated cells. (E) 3D invasion assay of MDA-MB-468 Luc and cancer-associated fibroblasts (CAFs) and corresponding quantification (scale bars: 200 μm). […]
1000 cells/well from the indicated cancer cell lines were seeded in 6-wells plates and allowed to grow 2 days before treatments. […] The area occupied by the cells was then quantified with ImageJ software.

[24] = target: Blk(m) (Mus musculus, UniProt P16277); assay: Kinase Profiler; type: biochemical
Method: as §2

[25] = target: TAF1L(h) (Homo sapiens, UniProt Q8IZX4); assay: Kinase Profiler; type: biochemical
Method: as §1

[26] = target: Arg(m) (Mus musculus, UniProt Q4JIM5); assay: Kinase Profiler; type: biochemical
Method: as §2

[27] = target: SIK3(h) (Homo sapiens, UniProt Q9Y2K2); assay: Kinase Profiler; type: biochemical
Method: as §1

[28] = target: PKCβII(h) (Homo sapiens, UniProt P05771); assay: Kinase Profiler; type: biochemical
Sequence of PKCβII(h) (P05771 1-673 isoform P05771-2): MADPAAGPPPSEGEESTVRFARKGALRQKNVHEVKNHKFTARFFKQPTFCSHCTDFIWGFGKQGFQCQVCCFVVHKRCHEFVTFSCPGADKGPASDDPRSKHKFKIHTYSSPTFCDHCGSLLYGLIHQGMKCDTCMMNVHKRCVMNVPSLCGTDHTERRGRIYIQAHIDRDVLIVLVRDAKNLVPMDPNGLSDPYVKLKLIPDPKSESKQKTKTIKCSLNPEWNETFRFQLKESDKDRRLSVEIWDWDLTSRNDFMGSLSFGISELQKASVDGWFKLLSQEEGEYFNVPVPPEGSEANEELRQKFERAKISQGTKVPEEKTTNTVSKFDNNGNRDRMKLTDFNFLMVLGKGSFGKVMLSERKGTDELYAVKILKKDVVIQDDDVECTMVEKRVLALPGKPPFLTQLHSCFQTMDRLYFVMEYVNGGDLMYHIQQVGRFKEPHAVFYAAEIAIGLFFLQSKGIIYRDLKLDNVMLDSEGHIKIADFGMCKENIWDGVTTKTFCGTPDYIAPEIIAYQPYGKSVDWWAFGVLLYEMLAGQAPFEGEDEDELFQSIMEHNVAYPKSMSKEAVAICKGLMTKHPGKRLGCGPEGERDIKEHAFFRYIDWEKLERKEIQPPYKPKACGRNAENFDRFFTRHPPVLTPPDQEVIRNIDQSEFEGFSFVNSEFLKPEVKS
Method: as §1

[29] = target: ZIPK(h) (Homo sapiens, UniProt O43293); assay: Kinase Profiler; type: biochemical
Sequence of ZIPK(h) (O43293 whole entry): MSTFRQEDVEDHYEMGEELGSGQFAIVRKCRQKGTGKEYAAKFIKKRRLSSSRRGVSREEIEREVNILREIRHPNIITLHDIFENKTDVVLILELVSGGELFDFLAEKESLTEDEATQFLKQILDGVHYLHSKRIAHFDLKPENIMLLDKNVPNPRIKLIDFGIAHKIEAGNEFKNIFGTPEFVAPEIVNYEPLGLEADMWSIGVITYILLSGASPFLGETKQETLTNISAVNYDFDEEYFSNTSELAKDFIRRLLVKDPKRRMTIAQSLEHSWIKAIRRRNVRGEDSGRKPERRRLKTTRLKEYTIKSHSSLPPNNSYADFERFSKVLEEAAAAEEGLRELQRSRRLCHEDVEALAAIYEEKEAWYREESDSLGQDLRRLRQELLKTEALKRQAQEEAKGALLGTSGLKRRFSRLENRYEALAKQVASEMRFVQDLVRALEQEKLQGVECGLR
Method: as §1

[30] = target: MLK1(h) (Homo sapiens, UniProt P80192); assay: Kinase Profiler; type: biochemical
Method: as §2

## COc1ccc(OC)c(NS(=O)(=O)c2ccc(NC(=O)CCSc3ccc(C)cc3)cc2)c1 [Compound A41]
[1]
  Activity(%): 93%
[2]
  animal survival: improvement in animal survival
  development of pulmonary metastases: significantly reduced the development of pulmonary metastases
[3]
  % inh.: 11%
[4]
  Activity(%): 98%
[5]
  Activity(%): 110%
[6]
  Activity(%): 110%
[7]
  % inh.: 30%
[8]
  Activity(%): 124%
[9]
  Activity(%): 109%
[10]
  % inh.: 17%
[11]
  Activity(%): 102%
[12]
  Activity(%): 107%
[13]
  % inh.: 4%
[14]
  % inh.: -6%
[15]
  Activity(%): 115%
[16]
  Activity(%): 120%
[17]
  Activity(%): 105%
[18]
  Activity(%): 115%
[19]
  % inh.: 10%
[20]
  Activity(%): 109%
[21]
  Activity(%): 106%
[22]
  Activity(%): 99%
[23]; dose-response curve, Figure 5B, read-out: IC50, colony formation
  IC50: 2100 nM
[23]; increasing concentrations
  colony formation: significantly inhibited colony formation in a dose-dependent manner
[24]
  Activity(%): 87%
[25]
  Activity(%): 110%
[26]
  Activity(%): 109%
[27]
  Activity(%): 106%
[28]
  Activity(%): 97%
[29]
  Activity(%): 103%
[30]
  Activity(%): 102%
